This is an account of results in patent US20250002475A1 (EPICS THERAPEUTICS, priority 2023, published 2025).

The target in the experiment is T1, recombinant METTL3/METTL14 complex (Homo sapiens, UniProt Q86U44).
T1 construct: purchased Active Motif 311970; host or cells: Sf9 cells
In words: METTL3/14 Scintillation Proximity Assay (SPA), RNA methyltransferase activity. The class given is biochemical. To be noted: 5.31 nM METTL3/14 complex, 250 nM RNA substrate, 1 μM 3H-SAM, 90 min; for compounds marked * best of the two separated forms. On the technique in general: In a scintillation proximity assay essentially only radioactivity close to the scintillant gives light.

SMILES strings stand for the structures.

T1 sequence (Q86U44 whole entry): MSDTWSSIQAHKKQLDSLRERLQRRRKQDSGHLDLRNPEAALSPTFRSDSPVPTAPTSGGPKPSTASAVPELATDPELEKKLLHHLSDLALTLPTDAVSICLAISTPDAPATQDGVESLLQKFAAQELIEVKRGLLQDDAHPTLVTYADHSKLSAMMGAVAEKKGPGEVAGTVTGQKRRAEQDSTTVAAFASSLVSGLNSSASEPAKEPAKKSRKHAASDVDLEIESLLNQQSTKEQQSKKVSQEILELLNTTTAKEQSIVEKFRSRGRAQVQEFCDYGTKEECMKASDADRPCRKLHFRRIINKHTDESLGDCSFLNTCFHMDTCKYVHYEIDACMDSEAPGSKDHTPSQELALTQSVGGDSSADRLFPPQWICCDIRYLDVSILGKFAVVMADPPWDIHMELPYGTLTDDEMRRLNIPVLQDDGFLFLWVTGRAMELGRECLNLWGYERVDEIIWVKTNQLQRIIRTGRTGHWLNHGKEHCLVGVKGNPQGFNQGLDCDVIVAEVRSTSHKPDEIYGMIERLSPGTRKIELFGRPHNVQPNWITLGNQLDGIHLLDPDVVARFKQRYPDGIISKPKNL
T1 sequence (Q9HCE5 whole entry partner): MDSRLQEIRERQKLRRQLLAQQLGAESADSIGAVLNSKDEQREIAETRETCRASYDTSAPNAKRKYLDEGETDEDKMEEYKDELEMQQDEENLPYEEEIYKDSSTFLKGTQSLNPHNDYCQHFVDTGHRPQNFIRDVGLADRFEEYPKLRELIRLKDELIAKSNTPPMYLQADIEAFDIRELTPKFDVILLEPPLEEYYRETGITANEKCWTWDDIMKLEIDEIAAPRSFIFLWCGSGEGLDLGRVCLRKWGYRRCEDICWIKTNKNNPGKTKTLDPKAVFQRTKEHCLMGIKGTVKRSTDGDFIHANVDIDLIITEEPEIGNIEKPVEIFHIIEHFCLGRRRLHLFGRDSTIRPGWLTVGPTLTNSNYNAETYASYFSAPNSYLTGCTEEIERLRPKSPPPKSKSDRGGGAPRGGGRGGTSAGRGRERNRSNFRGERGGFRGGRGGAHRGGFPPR

For orientation: IC50 means the concentration at which inhibition is half-maximal. Consider `COc1cnnc(-c2cn(Cc3ccc(N4CCC[C@@H](NCC5CCC5)C4)cc3)nn2)c1` [Compound 136, (R)-N-(cyclobutylmethyl)-1-(4-((4-(5-methoxypyridazin-3-yl)-1H-1,2,3-triazol-1-yl)methyl)phenyl)piperidin-3-amine], for which the IC50 is at most 50 nM.
Turning to `COc1cnnc(-c2cn(Cc3ccc(N4CCC[C@@H](NCC5CCC5)C4)cn3)nn2)c1` [Compound 118, (R)-N-(cyclobutylmethyl)-1-(6-((4-(5-methoxypyridazin-3-yl)-1H-1,2,3-triazol-1-yl)methyl)pyridin-3-yl)piperidin-3-amine], the IC50 is at most 50 nM.
The result for `CC(n1cc(-c2cncc(Cl)c2)nn1)n1ccc(N2CCC[C@@H](NCC3CCC3)C2)cc1=O` (mixture of isomers) [Compound 078, 1-(1-(4-(5-chloropyridin-3-yl)-1H-1,2,3-triazol-1-yl)ethyl)-4-((R)-3-((cyclobutylmethyl)amino)piperidin-1-yl)pyridin-2(1H)-one] reads at most 50 nM; that for `COc1cncc(-c2cn(C3(c4ccc(N5CCC[C@@H](NCC6CCC6)C5)nn4)CC3)nn2)c1` [Compound 115, (R)-N-(cyclobutylmethyl)-1-(6-(1-(4-(5-methoxypyridin-3-yl)-1H-1,2,3-triazol-1-yl)cyclopropyl)pyridazin-3-yl)piperidin-3-amine], at most 50 nM.
Regarding `CC(c1ccc(N2CCC[C@@H](NCC3CCC3)C2)nn1)n1cc(-c2cncc(N(C)C)c2)nn1` (mixture of isomers) [Compound 133, 5-(1-(1-(6-((R)-3-((cyclobutylmethyl)amino)piperidin-1-yl)pyridazin-3-yl)ethyl)-1H-1,2,3-triazol-4-yl)-N,N-dimethylpyridin-3-amine], the IC50 is at most 50 nM.
With `CC(c1ccc(N2CCC[C@@H](NCC3CCC3)C2)nn1)n1cc(-c2cc(=O)n3cc(Cl)ccc3n2)nn1` (stereo partly drawn) [Compound 090, 7-chloro-2-(1-(1-(6-((R)-3-((cyclobutylmethyl)amino)piperidin-1-yl)pyridazin-3-yl)ethyl)-1H-1,2,3-triazol-4-yl)-4H-pyrido[1,2-a]pyrimidin-4-one], the IC50 was at most 50 nM.
For `N#Cc1cncc(-c2cn(Cc3ccc(N4CCC[C@@H](NCC5CCC5)C4)nn3)nn2)c1` [Compound 021, (R)-5-(1-((6-(3-((cyclobutylmethyl)amino)piperidin-1-yl)pyridazin-3-yl)methyl)-1H-1,2,3-triazol-4-yl)nicotinonitrile], the IC50 was in the range of 50 to 500 nM.
On to `CC(n1cc(-c2cncc(N(C)C(F)(F)F)c2)nn1)n1ccc(N2CCC[C@@H](NCC3CC3)C2)cc1=O` (single isomer, unassigned) [Compound 236], for which the IC50 is at most 50 nM.
On to `COc1cncc(-c2nnc(Cc3ccc(N4CCC[C@@H](NCC5CCC5)C4)nn3)[nH]2)c1` [Compound 069, (R)-N-(cyclobutylmethyl)-1-(6-((5-(5-methoxypyridin-3-yl)-4H-1,2,4-triazol-3-yl)methyl)pyridazin-3-yl)piperidin-3-amine], for which the IC50 is at most 50 nM.
`COc1cc(-c2ncc(C(C)c3ccc(N4CCC[C@@H](NCC5CCC5)C4)cn3)s2)c2cn[nH]c2c1` (single isomer, unassigned) [Compound 167]: the IC50 was at most 50 nM.
As to `COc1cnnc(-c2cn(C(C)c3ccc(N4CCC[C@@H](NCC5CCC5)C4)nn3)nn2)c1` (single isomer, unassigned) [Compound 137], the IC50 is 50 to 500 nM.
On to `CC(NC(=O)c1cc(=O)n2ccccc2n1)c1ccc(N2CCC[C@@H](NCC3CCC3)C2)cc1` (stereo partly drawn) [Compound 100, N-(1-(4-((R)-3-((cyclobutylmethyl)amino)piperidin-1-yl)phenyl)ethyl)-4-oxo-4H-pyrido[1,2-a]pyrimidine-2-carboxamide], for which the half-inhibitory concentration (IC50) lay within 50 to 500 nM.
Consider `CC(n1cc(-c2cccnc2)nn1)n1ccc(N2CCC[C@@H](NCC3CCC3)C2)cc1=O` (stereo partly drawn) [Compound 079, 4-((R)-3-((cyclobutylmethyl)amino)piperidin-1-yl)-1-(1-(4-(pyridin-3-yl)-1H-1,2,3-triazol-1-yl)ethyl)pyridin-2(1H)-one], for which the IC50 was at most 50 nM.
Turning to `CC(c1ccc(N2CCC[C@@H](NCC3CCC3)C2)nn1)n1cc(-c2cc(=O)n3ccccc3n2)nn1` (stereo partly drawn) [Compound 089, 2-(1-(1-(6-((R)-3-((cyclobutylmethyl)amino)piperidin-1-yl)pyridazin-3-yl)ethyl)-1H-1,2,3-triazol-4-yl)-4H-pyrido[1,2-a]pyrimidin-4-one], the IC50 is at most 50 nM.
With `COc1cc(-c2cn(Cn3cc(F)c(N4CCCC(NCC5CCC5)C4)cc3=O)nn2)c2cn[nH]c2c1` (centres unmarked) [Compound 054, 4-(3-((cyclobutylmethyl)amino)piperidin-1-yl)-5-fluoro-1-((4-(6-methoxy-1H-indazol-4-yl)-1H-1,2,3-triazol-1-yl)methyl)pyridin-2(1H)-one], the IC50 was in the range of 500 to 3500 nM.
Consider `CCOc1cncc(-c2cn(C(C)n3ccc(N4CCC[C@@H](NCC5CCC5)C4)cc3=O)nn2)c1` (mixture of isomers) [Compound 103, 4-((R)-3-((cyclobutylmethyl)amino)piperidin-1-yl)-1-(1-(4-(5-ethoxypyridin-3-yl)-1H-1,2,3-triazol-1-yl)ethyl)pyridin-2(1H)-one], for which the IC50 is at most 50 nM.
On to `COc1cc(-c2cn(Cc3ncc(N4CCCC(NCC5CCC5)C4)s3)nn2)c2cn[nH]c2c1` (centres unmarked) [Compound 049, N-(cyclobutylmethyl)-1-(2-((4-(6-methoxy-1H-indazol-4-yl)-1H-1,2,3-triazol-1-yl)methyl)thiazol-5-yl)piperidin-3-amine], for which the IC50 is at most 50 nM.
Turning to `O=C(NCc1ccc(N2CCC[C@@H](NCC3CC3)C2)nn1)c1cc(=O)n2ccccc2n1` [Compound 016, (R)-N-((6-(3-((cyclopropylmethyl)amino)piperidin-1-yl)pyridazin-3-yl)methyl)-4-oxo-4H-pyrido[1,2-a]pyrimidine-2-carboxamide], the IC50 fell in the range of 50 to 500 nM.
As for `O=c1cc(-c2cn(Cc3ccc(N4CCC[C@@H](NCC5CCC5)C4)cc3)nn2)nc2ccccn12` [Compound 128, (R)-2-(1-(4-(3-((cyclobutylmethyl)amino)piperidin-1-yl)benzyl)-1H-1,2,3-triazol-4-yl)-4H-pyrido[1,2-a]pyrimidin-4-one], the IC50 is at most 50 nM.
As for `O=C(NCc1ccc(N2CCC[C@@H](NCC3CCC3)C2)cc1)c1cc(=O)n2ccccc2n1` [Compound 070, (R)-N-(4-(3-((cyclobutylmethyl)amino)piperidin-1-yl)benzyl)-4-oxo-4H-pyrido[1,2-a]pyrimidine-2-carboxamide], the IC50 is at most 50 nM.
The figure for `COc1cncc(-c2cn(C(c3ccc(N4CCC[C@@H](NCC5CCC5)C4)nn3)C3CC3)nn2)c1` (single isomer, unassigned) [Compound 084] is at most 50 nM; for `O=C(Nc1cc2ccccc2c(=O)[nH]1)C1(c2ccc(N3CCC[C@@H](NCC4CCC4)C3)cn2)COC1` [Compound 302, (R)-3-(5-(3-((cyclobutylmethyl)amino)piperidin-1-yl)pyridin-2-yl)-N-(1-oxo-1,2-dihydroisoquinolin-3-yl)oxetane-3-carboxamide] it is at most 50 nM; for `COc1cc(C(=O)NCc2ccc(N3CCC[C@@H](NCC4CCC4)C3)nn2)c2cn[nH]c2c1` [Compound 005, (R)-N-((6-(3-((cyclobutylmethyl)amino)piperidin-1-yl)pyridazin-3-yl)methyl)-6-methoxy-1H-indazole-4-carboxamide] it is 50 to 500 nM.
